# Data published in US10729742B2, “Screening method for the identification of agents capable of activating CD4+CD25+ regulatory T-cells through interactions with the HIV-1 GP120 binding site on CD4” (priority 2007, dated 2020).
# Key:
# CD4+CD25+ Treg cells [1] = experiment: Coculture suppression assay B: CD8+ T effector cell proliferation (3H-Tdr incorporation) with CD4+CD25+ Treg cells and syngenic T cell-depleted PBMC; format: cell-based, human; conditions: for proliferation of CD8+ T cells co-cultured with CD4+CD25+ Treg cells and inactivated syngenic CD3-depleted PBMC: FIG. 1 black bars, compared with CD8+ T cells without Tregs, 3H-Tdr incorporation 4 days later, effect dose-dependent; for proliferation of CD4+CD25+ Tregs: FIG. 1 white bars
# Excerpt: In order to study the influence of a substance, e.g. HIV-1 gp120 which can bind at least to the epitope given in SEQ ID NO.:1 exclusively on the suppressive function of CD4^+CD25^+ Treg cells, we developed a co-culture assay which contained CD8^+ T cells as effectors to exclude any influence of this substance on the latter (CD8^+ T cells don't express CD4). […] To evaluate the influence of e.g. HIV-1 gp120 on the function of CD4^+CD25^+ Treg cells, isolated CD4^+CD25^+ Treg cells (2.1.4) are co-cultured with syngenic, T cell-depleted and irradiated (50 Gy) PBMC 2.1.6) and allogeneic CD8^+ T effector cells (2.1.3) in presence of varying concentrations (0.1-10 μg/ml) of different HIV-1 gp120 preparations. Briefly, 1×10^5 CD4^+CD25^+ Treg cells are incubated with 3×10^5 syngenic T cell-depleted PBMC in the presence or absence of varying amounts of HIV-1 gp120. Stimulation with 0.5 μg/ml anti-CD3 monoclonal antibody (OKT-3, ebioscience, USA) serves as positive control. No additional stimulation represents negative control. Either immediately or 24 h. later, 1×10^5 allogeneic CD8^+ T effector cells are added to the cultures and proliferation is determined after additional 72 h. by ^3H-Tdr incorporation (37 kBq/well). Functional activation of CD4^+CD25^+ Treg cells via interaction with the epitope as set forth in SEQ ID NO:1 result in suppressed proliferation of CD8^+ T effector cells and therewith identifies a substance as a Treg cell activator (Data see FIG. 1).
# After 3-4 days of incubation of cells in assays provided under (2.2.1), (2.2.2) and (2.2.3) T cell proliferation is measured. For additional 16 h., cells are pulsed with ^3H-Tdr (37 kBq/well, MB Biomedicals), and incorporated radioactivity is measured by using a liquid scintillation counter (Betaplate, Wallac/PerkinElmer). In the absence of a Treg cell activating compound, resting Treg cells cannot inhibit the proliferation of CD4^+ T helper cells or CD8^+ T effector cells (negative control). In contrast, in presence of an activating CD4-binding compound or anti-CD3 monoclonal antibody (positive control) the proliferation of CD4^+ T helper cells or CD8^+ T effector cells is suppressed by CD4^+CD25^+ Treg cells. A reduced incorporated radioactivity resembles suppressed proliferation and identifies CD4^+ T helper cell or CD8^+ T effector cell inhibition and therewith identifies that a CD4^+CD25^+ Treg cell has been activated.
# In order to study the influence of HIV-1 gp120 exclusively on the function of CD4^+CD25^+ Treg cells, we developed a coculture assay which contained CD8^+ T cells as effectors to exclude any influence of HIV-1 gp120 on the latter. Therefore, isolated CD4^+CD25^+ Treg cells are cocultured with T cell-depleted syngenic PBMC and allogeneic CD8^+ T effector cells. […] (All HIV-1 gp120 proteins: Protein Sciences Corp. Meriden, USA).
# 1×10^5 isolated CD25^+ Treg cells were incubated with 3×10^5 irradiated (50 Gy) syngenic T cell-depleted PBMC and 1×10^5 allogeneic CD8^+ T effector cells in presence/absence of different HIV-1 gp120 preparations, addition of 0.5 μg/ml anti-CD3 (OKT-3) served as positive control. Proliferation was determined by ^3H-Tdr-Incorporation 4 days later.
# Grey bars represent proliferation of CD8^+ T cells and inactivated syngenic CD3-depleted PBMC, white bars represent the proliferation of CD4^+CD25^+ Tregs and the black bars represent the proliferation of CD8^+ T cells co-cultured with CD4^+CD25^+ Tregs cells and inactivated syngenic CD3-depleted PBMC. Due to inactivation PBMC don't contribute to proliferation of the samples.
# NOD-Scid mice [2] = experiment: GVHD induced by transfer of human PBMC into NOD-Scid mice; lack of weight increase/weight loss as score; format: in vivo; conditions: FIG. 4; 5 μg HIV gp120 injected together with PBMC, intraperitoneal, three to six days old mice
# Excerpt: NOD-Scid mice, non-obese diabetic/severe combined immunodeficient mice, (mutant allele: Prkdc^Scid strain: NOD.CB 17-Prkdc^Scid, (Shultz et al. 1995)) from the Central Laboratory Animal Facility of the University of Mainz (also purchasable from The Jackson Laboratory via Charles River Laboratories, Germany) are used as an animal model for transfer of peripheral human immune cells and thus for the in vivo analysis of immuno-regulatory interactions (Hesselton et al. 1995). Human peripheral blood mononuclear cells (PBMC) transferred into NOD-Scid mice induce an accelerating […] graft-versus-host disease (GVHD). While the number of cells transferred determines the onset of this disease, the co-transfer of human Tregs can gradually delay or prevent the disease. This model system further allows the study of human Treg function. To induce a GVHD NOD-Scid mice at the age of three to six days after birth are intraperitoneally injected with 1×10^7 to 3×10^7 human PBMC (isolation of human PBMC according to 2.1.1). GVHD is induced by immunological (xenogenic) activation of human effector T cells in the PBMC fraction injected into the mice. NOD-Scid mice, however, are not able to react against the grafted human PBMC. […]
# NOD-Scid mice [3] = experiment: GVHD induced by transfer of human CD25-depleted PBMC into NOD-Scid mice; lack of weight increase/weight loss as score; format: in vivo; conditions: FIG. 5; 5 μg HIV gp120 injected together with CD25-depleted PBMC, intraperitoneal
# Excerpt: NOD-Scid mice at the age of three to six days after birth are intraperitoneally injected with 1×10^7 human CD25-depleted PBMC (isolation of human CD25-depleted PBMC according to 2.1.7). GVHD is induced by 1×10^7 human CD25-depleted PBMC at the same magnitude as by transfer of 1×10^7 human non CD25-depleted PBMC into NOD-Scid mice. […] Prevention of GVHD by HIV gp120 or a substance which can interfere with HIV-1 gp120-binding depends on regulatory T cells. Lack of weight increase/weight loss is used as a parameter to score GVHD severity. Data see FIG. 5.
# Three to six days old NOD-Scid mice are intraperitoneally injected with 1×10^7 human CD25-depleted PBMC without (circles) or together with 5 μg HIV gp120 (triangles). […] Lack of weight increase/weight loss is used as a parameter to score GVHD severity.
# CD4+CD25+ Treg cells [4] = experiment: Cytosolic cAMP measurement in CD4+CD25+ Treg cells (cAMP-specific ELISA); format: cell-based, human; conditions: FIG. 2; 1 μg/ml, 16 hours of stimulation, 1×10^6 T cells
# Protocol: Stimulation of Treg cells results in strong increase of cytosolic (i.e. intracellular) cAMP. Therefore, the analysis of cAMP in Treg cells is an additional method to determine whether a substance which can interfere with HIV-1 gp120 binding to CD4 epitope of a CD4-positive cell can activate a Treg cell. In this assay freshly isolated CD4^+CD25^+ Treg cells (according to 2.1.4) (1×10^5-1×10^6/well) are incubated with anti-CD3 monoclonal antibody (OKT-3; 0.5 μg/ml) or HIV-1 gp120 (0.1-10 μg/ml; Protein Science Corp., Meriden, Conn., USA) or left untreated for 16 hours. To assess cytosolic cAMP-concentrations a cAMP-specific ELISA (Parameter™ Cyclic AMP Assay, Cat. No. KGE002; R&D Systems, Wiesbaden, Germany) is applied. […]
# Activation of Treg cells by the test compound results directly in an increase of cytosolic cAMP. In the absence of a Treg cell activating compound no increase of cAMP in CD4^+CD25^+ Treg cells is detected (negative control). […]
# CD4^+CD25^+ regulatory T cells (CD25) are left untreated (0) or stimulated with an anti-CD3 monoclonal Antibody (OKT-3; 1 μg/ml) or HIV-1 gp120 (1 μg/ml). Upon 16 hours of stimulation the CD4^+CD25^+ regulatory T cells are lysed (1×10^7/ml) and the cytosolic cAMP concentration of 1×10^6 T cells is assessed using a cAMP-specific ELISA. […]
Substance,proliferation of CD8+ T cells co-cultured with CD4+CD25+ Treg cells and inactivated syngenic CD3-depleted PBMC (CD4+CD25+ Treg cells [1]),proliferation of CD4+CD25+ Tregs (CD4+CD25+ Treg cells [1]; 3H-Tdr incorporation),development of GVHD (relative body weight) after transfer of 1×10^7 human PBMC (NOD-Scid mice [2]),development of GVHD (relative body weight) after transfer of 1×10^7 human CD25-depleted PBMC (NOD-Scid mice [3]),cytosolic (intracellular) cAMP in Treg cells compared to untreated control (CD4+CD25+ Treg cells [4]),"proliferation of CD8+ T cells and inactivated syngenic CD3-depleted PBMC, without Tregs (CD4+CD25+ Treg cells [1]; FIG. 1 grey bars, 3H-Tdr incorporation)"
"HIV-1 gp120 CM: HIV-1 gp120 preparation CM, Protein Sciences Corp. Meriden, USA",reduced proliferation,don't show a significant proliferation,,,,
"HIV-1 gp120 LAV: HIV-1 gp120 preparation LAV, Protein Sciences Corp. Meriden, USA",reduced proliferation,don't show a significant proliferation,,,,
"HIV-1 gp120 MN: HIV-1 gp120 preparation MN, Protein Sciences Corp. Meriden, USA",reduced proliferation,don't show a significant proliferation,,,,
"HIV-1 gp120: human immune deficiency virus 1 (HIV-1) glycoprotein gp120, binds CD4; Protein Sciences Corp.",,,protected from development of GVHD,not protected from development of GVHD,increase of intracellular cAMP,
"anti-CD3: anti-CD3 monoclonal antibody (OKT-3, ebioscience, USA), positive control [reference compound]",reduced proliferation,don't show a significant proliferation,,,increase of intracellular cAMP,strong increased proliferation
